Test results as given in PubChem BioAssay (NCI).
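96-well plates; 48 h exposure; 5 concentrations. Endpoints by linear interpolation between flanking doses. Not reached: highest tested concentration assigned. At the GI50, growth is halved. TGI marks complete inhibition of growth.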

What was measured:
Assay in all cases: NCI-60 cell line screen, 48 h
HT29 colon = test system: HT29 colon
UO-31 renal = test system: UO-31 renal
MDA-MB-435 = test system: MDA-MB-435
SR leukemia = test system: SR leukemia
SK-OV-3 ovarian = test system: SK-OV-3 ovarian
OVCAR-8 ovarian = test system: OVCAR-8 ovarian
EKVX NSCLC = test system: EKVX NSCLC
SK-MEL-2 melanoma = test system: SK-MEL-2 melanoma
NCI/ADR-RES ovarian = test system: NCI/ADR-RES ovarian
NCI-H23 lung = test system: NCI-H23 lung
SF-295 CNS = test system: SF-295 CNS
KM12 colon = test system: KM12 colon
UACC-62 melanoma = test system: UACC-62 melanoma
U251 CNS = test system: U251 CNS
CCRF-CEM leukemia = test system: CCRF-CEM leukemia
OVCAR-5 ovarian = test system: OVCAR-5 ovarian
DU-145 prostate = test system: DU-145 prostate
SNB-75 CNS = test system: SNB-75 CNS
HCT-116 colon = test system: HCT-116 colon
LOX IMVI melanoma = test system: LOX IMVI melanoma
UACC-257 melanoma = test system: UACC-257 melanoma
MOLT-4 leukemia = test system: MOLT-4 leukemia
SN12C renal = test system: SN12C renal
SW-620 colon = test system: SW-620 colon
PC-3 prostate = test system: PC-3 prostate
NCI-H226 lung = test system: NCI-H226 lung
A498 renal = test system: A498 renal
HL-60(TB) leukemia = test system: HL-60(TB) leukemia

Cc1cc2c(cc1C)[n+](=O)c(C(=O)C(C)(C)C)c(C(F)(F)F)n2[O-]
GI50 (HT29 colon): 31.7 µM | TGI (HT29 colon): > 100 µM | GI50 (UO-31 renal): 17.4 µM | TGI (UO-31 renal): 33.2 µM | GI50 (MDA-MB-435): 28.2 µM | TGI (MDA-MB-435): 78.9 µM | GI50 (SR leukemia): 11.5 µM | TGI (SR leukemia): 33.2 µM | GI50 (SK-OV-3 ovarian): 50 µM | TGI (SK-OV-3 ovarian): > 100 µM | GI50 (OVCAR-8 ovarian): 3.62 µM | TGI (OVCAR-8 ovarian): 15.5 µM | GI50 (EKVX NSCLC): 2.91 µM | TGI (EKVX NSCLC): 9.95 µM | GI50 (SK-MEL-2 melanoma): 25.6 µM | TGI (SK-MEL-2 melanoma): 58.7 µM | GI50 (NCI/ADR-RES ovarian): 9.08 µM | TGI (NCI/ADR-RES ovarian): 27.5 µM | GI50 (NCI-H23 lung): 16.1 µM | TGI (NCI-H23 lung): 47.6 µM | GI50 (SF-295 CNS): 28.8 µM | TGI (SF-295 CNS): 85.4 µM | GI50 (KM12 colon): 25 µM | TGI (KM12 colon): 62.1 µM | GI50 (UACC-62 melanoma): 17 µM | TGI (UACC-62 melanoma): 71.5 µM | GI50 (U251 CNS): 20.8 µM | TGI (U251 CNS): > 100 µM | GI50 (CCRF-CEM leukemia): 12.3 µM | TGI (CCRF-CEM leukemia): 49.3 µM | GI50 (OVCAR-5 ovarian): 8.51 µM | TGI (OVCAR-5 ovarian): 54.2 µM | GI50 (DU-145 prostate): 5.45 µM | TGI (DU-145 prostate): 19.5 µM | GI50 (SNB-75 CNS): 45.9 µM | TGI (SNB-75 CNS): > 100 µM | GI50 (HCT-116 colon): 10.6 µM | TGI (HCT-116 colon): > 100 µM | GI50 (LOX IMVI melanoma): 9.53 µM | TGI (LOX IMVI melanoma): 25.7 µM | GI50 (UACC-257 melanoma): 7.71 µM | TGI (UACC-257 melanoma): 41.2 µM | GI50 (MOLT-4 leukemia): 8.2 µM | TGI (MOLT-4 leukemia): 29.3 µM | GI50 (SN12C renal): 14.1 µM | TGI (SN12C renal): 62.7 µM | GI50 (SW-620 colon): 28.4 µM | TGI (SW-620 colon): > 100 µM | GI50 (PC-3 prostate): 6.24 µM | TGI (PC-3 prostate): 39.2 µM | GI50 (NCI-H226 lung): 16.2 µM | TGI (NCI-H226 lung): 70.6 µM | GI50 (A498 renal): 18.1 µM | TGI (A498 renal): 44.1 µM | GI50 (HL-60(TB) leukemia): 5.9 µM
